# Results as given in ChEMBL document CHEMBL1201862, “PubChem BioAssay data set” (2004).
#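 The compound was tested at five concentrations on cells cultured in 96-well plates, with a 48-hour exposure period. Abbreviation: GI50, concentration required for 50% inhibition of growth.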 Calls of active or inactive are those of the source. No stated cut-off is given here; in the data, active = GI50 up to about 1.1 µM and inactive = higher.
# Experiments:
# Test in all cases: DTP human tumour cell line panel, 48 h
# [1] = system: A549
# [2] = system: BT-549
# [3] = system: EKVX
# [4] = system: HCT-116
# [5] = system: HL-60
# [6] = system: HOP-62
# [7] = system: MCF7
# [8] = system: MDA-MB-231
# [9] = system: NCI-H23
# [10] = system: RPMI-8226
# [11] = system: SF-268
# [12] = system: SK-OV-3
# [13] = system: SN12C
# [14] = system: SR
# [15] = system: SW-620
# [16] = system: TK-10
# [17] = system: U-251
# [18] = system: KM-20L2
# [19] = system: SNB-78
SMILES,GI50 [1],GI50 [2],GI50 [3],GI50 [4],GI50 [5],GI50 [6],GI50 [7],GI50 [8],GI50 [9],GI50 [10],GI50 [11],GI50 [12],GI50 [13],GI50 [14],GI50 [15],GI50 [16],GI50 [17],GI50 [18],GI50 [19]
COc1ccc(CCNC2=CC(=O)c3ncccc3C2=O)cc1OC,0.918 µM (active),1.3 µM (inactive),5.5 µM (inactive),2.51 µM (inactive),2.82 µM (inactive),1.89 µM (inactive),1.38 µM (inactive),0.789 µM (active),0.346 µM (active),5.57 µM (inactive),5.18 µM (inactive),10.2 µM (inactive),0.973 µM (active),4.24 µM (inactive),1.68 µM (inactive),24.3 µM (inactive),0.863 µM (active),,
CC1=NN2CCC(=O)N=C2S1,> 100 µM (inactive),> 100 µM (inactive),> 100 µM (inactive),> 100 µM (inactive),> 100 µM (inactive),> 100 µM (inactive),> 100 µM (inactive),> 100 µM (inactive),> 100 µM (inactive),> 100 µM (inactive),> 100 µM (inactive),> 100 µM (inactive),> 100 µM (inactive),> 100 µM (inactive),> 100 µM (inactive),> 100 µM (inactive),> 100 µM (inactive),,
CCOC(=O)c1cccc(/N=N/c2ncc(/C=C/C(=O)OC)[nH]2)c1,24.5 µM (inactive),34.8 µM (inactive),27.7 µM (inactive),18.2 µM (inactive),5.97 µM (inactive),16.3 µM (inactive),21.6 µM (inactive),36.7 µM (inactive),28.2 µM (inactive),16.3 µM (inactive),26.8 µM (inactive),55.7 µM (inactive),7.03 µM (inactive),4.12 µM (inactive),26.5 µM (inactive),26.5 µM (inactive),22.6 µM (inactive),,
CCO/N=C(/N)c1ncn(Cc2ccccc2)c1NCC(OCC)OCC,> 100 µM (inactive),,> 100 µM (inactive),> 100 µM (inactive),,> 100 µM (inactive),,,,> 100 µM (inactive),> 100 µM (inactive),> 100 µM (inactive),> 100 µM (inactive),,> 100 µM (inactive),> 100 µM (inactive),> 100 µM (inactive),> 100 µM (inactive),> 100 µM (inactive)
CC(C)(C)C1CCC2c3c([nH]c4ccccc34)C3C(=O)N(c4ccccc4[N+](=O)[O-])C(=O)C3C2C1 (configuration not stated),7 µM (inactive),21.7 µM (inactive),11.4 µM (inactive),7.48 µM (inactive),11.7 µM (inactive),4.53 µM (inactive),3.1 µM (inactive),10.6 µM (inactive),8.34 µM (inactive),17.5 µM (inactive),> 10 µM (inactive),37.5 µM (inactive),14.6 µM (inactive),9.64 µM (inactive),11.5 µM (inactive),17.7 µM (inactive),16 µM (inactive),,
C[N+]1(C)C(c2ccccc2)C(=O)O[B@-]1(F)c1ccccc1 (some centres not stated),> 100 µM (inactive),> 100 µM (inactive),> 100 µM (inactive),> 100 µM (inactive),> 100 µM (inactive),> 100 µM (inactive),> 100 µM (inactive),> 100 µM (inactive),> 100 µM (inactive),> 100 µM (inactive),> 100 µM (inactive),> 100 µM (inactive),> 100 µM (inactive),> 100 µM (inactive),> 100 µM (inactive),> 100 µM (inactive),> 100 µM (inactive),,
COc1cc(/C=C2/C(=O)N(C(=O)c3ccccc3O)N=C2C)ccc1O,0.358 µM (active),,0.586 µM (active),0.0957 µM (active),0.536 µM (active),1.77 µM (inactive),0.514 µM (active),> 100 µM (inactive),0.277 µM (active),1.06 µM (active),0.23 µM (active),0.223 µM (active),0.719 µM (active),0.206 µM (active),1.36 µM (inactive),5.4 µM (inactive),0.144 µM (active),18.5 µM (inactive),
C[C@@H]1C[C@@H]2OC(=O)[C@]3(C)[C@H]2[C@@H](OC3(C)O)[C@]2(C)C(=O)C=C[C@@H]12 (some centres not stated) [TENULIN],> 100 µM (inactive),10.1 µM (inactive),20.2 µM (inactive),16.6 µM (inactive),3.48 µM (inactive),87.7 µM (inactive),15.7 µM (inactive),25 µM (inactive),25.9 µM (inactive),4.3 µM (inactive),31.3 µM (inactive),> 100 µM (inactive),18.3 µM (inactive),5.18 µM (inactive),16.9 µM (inactive),18 µM (inactive),40.3 µM (inactive),,
